In PMC7037682, “Herb–Drug Interaction of Red Ginseng Extract and Ginsenoside Rc with Valsartan in Rats” (Molecules, 2020):
Like-named read-outs stand apart in the source and are kept apart here.

How the values were obtained:
[1] = Plasma pharmacokinetics of ginsenosides in rats after 1-week repeated RGE; details: for detection in rat plasma: LC-MS/MS; for maximum plasma concentration (molar): after RGE 1.5 g/kg/day po for 7 days
Experimental: The rats were randomly divided into the control and RGE groups. The RGE group received a RGE suspension (1.5 g/mL/kg/day, in distilled water) for 7 days via oral gavage. The control group received distilled water for 7 days via oral gavage. After 1 h following the last RGE treatment, valsartan was injected intravenously to both groups via the tail vein at 1 mg/mL/kg (dissolved in DMSO: saline = 2:8, v/v). […] After centrifugation of the blood samples at 16,000× g for 10 min, aliquots (50 μL each) of plasma samples were stored at −80 °C until the analysis of ginsenosides and valsartan.
The residue was reconstituted with 100 μL of 70% methanol consisting of 0.1% formic acid. An aliquot (20 μL) from the sample was injected into the LC-MS/MS system.
After freezing the aqueous layer at −80 °C for 2 h, the upper organic layer was transferred to a clean tube and evaporated to dryness. […] An aliquot (20 μL) from the sample was injected into the LC-MS/MS system. The samples were eluted through an Omega Polar C18 column (2.1 mm × 100 mm, 3 µm particle size) (Phenomenex, Torrance, CA, USA) using a mobile phase consisting of 0.1% formic acid in water: 0.1% formic acid in methanol (15:85, v/v) at a flow rate of 0.2 mL/min.
Pharmacokinetic parameters were calculated from plasma concentration-time profile using non-compartment analysis of WinNonlin (version 5.1; Pharsights, Cary, NC, USA). The statistical significance was assessed by t-test using Statistical Package for the Social Sciences (version 24.0; SPSS Inc., Chicago, IL, USA).

[2] = target: T1, OATP1B1 (Homo sapiens, UniProt Q9Y6L6); experiment: Inhibition of OATP1B1-mediated [3H]estrone-3-sulfate uptake in HEK293-OATP1B1 cells
T1 sequence (Q9Y6L6 1-691): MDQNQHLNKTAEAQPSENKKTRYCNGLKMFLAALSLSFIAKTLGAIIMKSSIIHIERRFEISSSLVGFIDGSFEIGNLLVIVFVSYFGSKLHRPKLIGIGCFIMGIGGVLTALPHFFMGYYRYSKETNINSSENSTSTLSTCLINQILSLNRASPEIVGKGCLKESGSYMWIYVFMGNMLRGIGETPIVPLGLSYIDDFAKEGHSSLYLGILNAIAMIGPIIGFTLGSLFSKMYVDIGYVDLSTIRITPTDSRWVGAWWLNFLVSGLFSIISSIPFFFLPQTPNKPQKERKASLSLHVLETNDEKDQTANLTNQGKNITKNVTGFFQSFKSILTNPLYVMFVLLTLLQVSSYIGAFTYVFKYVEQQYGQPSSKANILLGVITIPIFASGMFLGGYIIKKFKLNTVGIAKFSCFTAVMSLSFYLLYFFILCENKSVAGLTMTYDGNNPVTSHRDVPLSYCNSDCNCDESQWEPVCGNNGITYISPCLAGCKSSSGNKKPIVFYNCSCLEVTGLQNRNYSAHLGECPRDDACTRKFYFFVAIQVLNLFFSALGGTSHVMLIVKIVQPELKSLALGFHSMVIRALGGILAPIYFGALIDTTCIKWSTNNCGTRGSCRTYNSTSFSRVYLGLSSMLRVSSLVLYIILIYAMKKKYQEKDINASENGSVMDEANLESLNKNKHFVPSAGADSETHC
Experimental: (§1) HEK293 cells overexpressing the OCT1, OCT2, OAT1, OAT3, OATP1B1, and OATP1B3 transporters (HEK293-OCT1, -OCT2, -OAT1, -OAT3, -OATP1B1, and -OATP1B3, respectively) and HEK293-mock cells (Corning Life Sciences; Woburn, MA, USA) were used and characterized as previously described.
(§2) HEK293 cells overexpressing drug transporters and HEK293-mock cells were seeded in poly-D-lysine-coated 96-well plates at a density of 10^5 cells/well and were cultured in DMEM supplemented with 10% FBS, 5 mM non-essential amino acids, and 2 mM sodium butyrate in a humidified atmosphere with 8% CO2 at 37 °C.
(§3) To examine the effects of ginsenosides and typical inhibitors on transporter activity, aliquots (100 μL) of HBSS containing the probe substrate and ginsenosides or typical inhibitors were added to the cells after aspirating pre-incubated HBSS. The concentrations and probe substrates were as follows: 0.1 μM [^3H]MPP^+ for OCT1 and OCT2, 0.1 μM [^3H]PAH for OAT1, 0.1 μM [^3H]ES for OAT3 and OATP1B1, and 0.1 μM [^3H]EG for OATP1B3. […] Then the uptake of probe substrates into HEK293-mock cells and HEK293-OCT1, -OCT2, -OAT1, -OAT3, -OATP1B1, and -OATP1B3 cells in the presence and absence of typical inhibitor or each ginsenoside with previously described concentration range was measured for 5 min. Immediately after placing the plates on ice, the cells were washed three times with 100 μL of ice-cold HBSS, followed by lysing with 50 μL of 10% SDS solution and mixing with 150 μL of Optiphase cocktail solution (Perkin Elmer Inc., Boston, MA, USA). The radioactivity of the probe substrates in the cells was determined using a liquid scintillation counter.
(§4) In the inhibition studies, the uptake rate of substrate by HEK293 cells overexpressing the respective transporters was used as the control (100%) and the uptake rate of substrates in the presence of typical inhibitors or ginsenosides expressed as a percentage of the control. The inhibition data were fitted to an inhibitory effect model using Sigma plot (version 10.0; Systat Software Inc., San Jose, CA, USA). IC50 value indicated the half-maximal inhibitory concentration of the inhibitor.

[3] = target: T2, OATP1B3 (Homo sapiens, UniProt Q9NPD5); experiment: Inhibition of OATP1B3-mediated [3H]estradiol-17β-D-glucuronide uptake in HEK293-OATP1B3 cells
T2 sequence (Q9NPD5 1-702): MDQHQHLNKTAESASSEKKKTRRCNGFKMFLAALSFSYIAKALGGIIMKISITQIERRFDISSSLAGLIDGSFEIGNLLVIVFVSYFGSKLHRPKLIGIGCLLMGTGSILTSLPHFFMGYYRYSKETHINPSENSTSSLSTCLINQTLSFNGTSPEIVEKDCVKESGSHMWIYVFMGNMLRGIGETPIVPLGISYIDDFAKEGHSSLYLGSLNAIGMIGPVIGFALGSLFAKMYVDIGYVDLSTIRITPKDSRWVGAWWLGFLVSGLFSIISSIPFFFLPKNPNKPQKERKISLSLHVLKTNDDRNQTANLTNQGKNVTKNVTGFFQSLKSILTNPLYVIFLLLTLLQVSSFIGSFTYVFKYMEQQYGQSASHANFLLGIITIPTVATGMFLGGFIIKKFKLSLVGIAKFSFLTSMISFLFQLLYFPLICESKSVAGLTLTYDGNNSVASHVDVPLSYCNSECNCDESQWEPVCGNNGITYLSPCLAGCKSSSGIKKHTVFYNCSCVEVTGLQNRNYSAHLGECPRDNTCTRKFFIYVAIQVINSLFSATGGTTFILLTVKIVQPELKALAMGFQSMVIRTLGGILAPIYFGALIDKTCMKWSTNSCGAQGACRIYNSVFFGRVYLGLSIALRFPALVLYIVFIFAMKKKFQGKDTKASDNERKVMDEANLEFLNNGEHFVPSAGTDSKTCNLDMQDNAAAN
Experimental: as §1, §2, §3, §4

[4] = after RGE 1.5 g/kg/day po for 1 week
[5] = rat plasma, 0 to 48 h, after RGE 1.5 g/kg/day po for 1 week
[6] = rat plasma, after RGE 1.5 g/kg/day po for 1 week
[7] = read-out: IC50 OATP1B1, HEK293-OATP1B1, 0.1 μM [3H]ES uptake, 5 min
[8] = read-out: IC50 OATP1B3, HEK293-OATP1B3, 0.1 μM [3H]EG uptake, 5 min

SMILES	detection in rat plasma [1, 4]	AUC [1, 5]	Cmax [1, 6]	MRT [1, 6]	T1/2 [1, 6]	Tmax [1, 6]	maximum plasma concentration (molar) ([1]; rat plasma)	IC50 [2, 7]	IC50 [3, 8]	IC50 OATP1B1 ([2]; HEK293-OATP1B1, 0.1 μM [3H]ES uptake, 5 min)	AUC ([1]; rat, plasma, po, 1.5 g/kg/day)	Cmax ([1]; rat, plasma, po, 1.5 g/kg/day)	MRT ([1]; rat, plasma, po, 1.5 g/kg/day)	Tmax ([1]; rat, plasma, po, 1.5 g/kg/day)	half-life ([1]; rat, plasma, po, 1.5 g/kg/day)	IC50 [2]	IC50 [3]
CC(C)=CCCC(C)(O)[C@H]1CC[C@]2(C)[C@@H]1[C@H](O)C[C@@H]1[C@@]3(C)CC[C@H](O)C(C)(C)[C@@H]3CC[C@]12C (stereo in doubt) [PPD, protopanaxadiol]	detected	542.01 ± 141.09 ng·h/mL	20.56 ± 9.47 ng/mL	21.56 ± 3.31 h	26.95 ± 18.33 h	16.50 ± 12.48 h	48.4 nM	> 100 µM	> 100 µM								
CC(C)=CCC[C@](C)(O[C@@H]1O[C@H](CO)[C@@H](O)[C@H](O)[C@H]1O)[C@H]1CC[C@]2(C)[C@@H]1[C@H](O)C[C@@H]1[C@@]3(C)CC[C@H](O)C(C)(C)[C@@H]3CC[C@]12C [Compound K, compound K]	not detected							22.5 µM	8.25 µM								
CC(C)=CCC[C@](C)(O)[C@H]1CC[C@]2(C)[C@@H]1[C@H](O)C[C@@H]1[C@@]3(C)CC[C@H](O)C(C)(C)[C@@H]3[C@@H](O)C[C@]12C [PPT, protopanaxatriol]	detected	429.91 ± 105.75 ng·h/mL	16.97 ± 8.99 ng/mL	23.12 ± 2.26 h	46.38 ± 13.27 h	16.50 ± 12.48 h	38.5 nM	> 100 µM	20.3 µM	did not inhibit							
CC(C)=CCC[C@](C)(O[C@@H]1O[C@H](CO[C@@H]2O[C@H](CO)[C@@H](O)[C@H](O)[C@H]2O)[C@@H](O)[C@H](O)[C@H]1O)[C@H]1CC[C@]2(C)[C@@H]1[C@H](O)C[C@@H]1[C@@]3(C)CC[C@H](O[C@@H]4O[C@H](CO)[C@@H](O)[C@H](O)[C@H]4O[C@@H]4O[C@H](CO)[C@@H](O)[C@H](O)[C@H]4O)C(C)(C)[C@@H]3CC[C@]12C [Rb1, ginsenoside Rb1]											455 ± 111 ng·h/mL	17.8 ± 2.34 ng/mL	17.1 ± 2.09 h	3.33 ± 1.15 h	16.9 ± 5.81 h	68.2 µM	2.28 µM
CC(C)=CCC[C@](C)(O[C@@H]1O[C@H](CO[C@@H]2OC[C@H](O)[C@H](O)[C@H]2O)[C@@H](O)[C@H](O)[C@H]1O)[C@H]1CC[C@]2(C)[C@@H]1[C@H](O)C[C@@H]1[C@@]3(C)CC[C@H](O[C@@H]4O[C@H](CO)[C@@H](O)[C@H](O)[C@H]4O[C@@H]4O[C@H](CO)[C@@H](O)[C@H](O)[C@H]4O)C(C)(C)[C@@H]3CC[C@]12C [Rb2, ginsenoside Rb2]							9.1 nM				283 ± 58.9 ng·h/mL	10 ± 1.04 ng/mL	18.6 ± 1.43 h	3.33 ± 1.15 h	30.2 ± 5.48 h	47.6 µM	1.76 µM
CC(C)=CCC[C@](C)(O[C@@H]1O[C@H](CO[C@@H]2O[C@@H](CO)[C@H](O)[C@H]2O)[C@@H](O)[C@H](O)[C@H]1O)[C@H]1CC[C@]2(C)[C@@H]1[C@H](O)C[C@@H]1[C@@]3(C)CC[C@H](O[C@@H]4O[C@H](CO)[C@@H](O)[C@H](O)[C@H]4O[C@@H]4O[C@H](CO)[C@@H](O)[C@H](O)[C@H]4O)C(C)(C)[C@@H]3CC[C@]12C [Rc, ginsenoside Rc]							10.6 nM				321 ± 97.2 ng·h/mL	11.7 ± 2.49 ng/mL	18.4 ± 1.89 h	3.33 ± 1.15 h	24.2 ± 7.51 h	18.3 µM	1.36 µM
CC(C)=CCC[C@](C)(O[C@@H]1O[C@H](CO)[C@@H](O)[C@H](O)[C@H]1O)[C@H]1CC[C@]2(C)[C@@H]1[C@H](O)C[C@@H]1[C@@]3(C)CC[C@H](O[C@@H]4O[C@H](CO)[C@@H](O)[C@H](O)[C@H]4O[C@@H]4O[C@H](CO)[C@@H](O)[C@H](O)[C@H]4O)C(C)(C)[C@@H]3CC[C@]12C [Rd, ginsenoside Rd]							5.3 nM				164 ± 39.1 ng·h/mL	5.1 ± 0.74 ng/mL	20.8 ± 1.68 h	2.17 ± 1.76 h	43.5 ± 17.5 h	15.9 µM	25.8 µM
